Patent US20250326753A1, “DUAL CXCR4-BTK INHIBITORS” (X4 Pharmaceuticals, Inc., priority 2022, published 2025)
Where two headings read alike, the source gives them in different places.

What was measured:
[1] = target: T1, FGFR1 (Homo sapiens, UniProt P11362); assay: PanQinase kinase panel: FGFR1; type: biochemical; settings: read-out: INHIBITORY EFFECT @ 1 uM: FGFR1
T1 construct: purchased Reaction Biology Europe GmbH
Description: (§1) Screening procedures were performed in accordance with the company's on-line protocol [accessed on-line Mar.
(§2) For each kinase, the median value of the cpm of three wells was defined as “low control” (n=3). This value reflects unspecific binding of radioactivity to the plate in the absence of a protein kinase but in the presence of the substrate. Additionally, for each kinase the median value of the cpm of three other wells was taken as the “high control,” i.e. full activity in the absence of any inhibitor (n=3). The difference between high and low control of each enzyme was taken as 100% activity.
(§3) As part of the data evaluation the low control of each kinase was subtracted from the high control value as well as from their corresponding “compound values”. The residual activity (in %) for each compound well was calculated by using the following formula: Res. Activity (%)=100×[(signal of compound−low control)/(high control−low control)].

[2] = target: T2, MKK6 SDTD (Homo sapiens, UniProt P52564, S207D/T211D); assay: PanQinase kinase panel: MKK6 SDTD; type: biochemical; settings: read-out: INHIBITORY EFFECT @ 1 uM: MKK6 SDTD
T2 construct: purchased Reaction Biology Europe GmbH
T2 sequence (P52564 1-334 S207D/T211D): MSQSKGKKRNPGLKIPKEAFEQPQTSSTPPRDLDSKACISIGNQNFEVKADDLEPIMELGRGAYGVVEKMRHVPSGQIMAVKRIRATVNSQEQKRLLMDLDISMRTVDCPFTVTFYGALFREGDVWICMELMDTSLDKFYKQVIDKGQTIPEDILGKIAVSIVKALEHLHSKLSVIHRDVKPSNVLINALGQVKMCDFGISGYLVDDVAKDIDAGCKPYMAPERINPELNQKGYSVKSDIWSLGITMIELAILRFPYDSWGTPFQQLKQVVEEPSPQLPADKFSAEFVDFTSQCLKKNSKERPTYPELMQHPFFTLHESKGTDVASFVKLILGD
Description: as §1, §2, §3

[3] = target: BTK (Homo sapiens, UniProt Q06187); assay: PanQinase kinase panel: BTK; type: biochemical; design: purchased Reaction Biology Europe GmbH
Description: as §1, §2
(§4) As part of the data evaluation the low control of each kinase was subtracted from the high control value as well as from their corresponding “compound values”.

[4] = target: T3, BMX (Homo sapiens, UniProt P51813); assay: PanQinase kinase panel: BMX; type: biochemical; settings: read-out: INHIBITORY EFFECT @ 1 uM: BMX
T3 construct: purchased Reaction Biology Europe GmbH
T3 sequence (P51813 1-675): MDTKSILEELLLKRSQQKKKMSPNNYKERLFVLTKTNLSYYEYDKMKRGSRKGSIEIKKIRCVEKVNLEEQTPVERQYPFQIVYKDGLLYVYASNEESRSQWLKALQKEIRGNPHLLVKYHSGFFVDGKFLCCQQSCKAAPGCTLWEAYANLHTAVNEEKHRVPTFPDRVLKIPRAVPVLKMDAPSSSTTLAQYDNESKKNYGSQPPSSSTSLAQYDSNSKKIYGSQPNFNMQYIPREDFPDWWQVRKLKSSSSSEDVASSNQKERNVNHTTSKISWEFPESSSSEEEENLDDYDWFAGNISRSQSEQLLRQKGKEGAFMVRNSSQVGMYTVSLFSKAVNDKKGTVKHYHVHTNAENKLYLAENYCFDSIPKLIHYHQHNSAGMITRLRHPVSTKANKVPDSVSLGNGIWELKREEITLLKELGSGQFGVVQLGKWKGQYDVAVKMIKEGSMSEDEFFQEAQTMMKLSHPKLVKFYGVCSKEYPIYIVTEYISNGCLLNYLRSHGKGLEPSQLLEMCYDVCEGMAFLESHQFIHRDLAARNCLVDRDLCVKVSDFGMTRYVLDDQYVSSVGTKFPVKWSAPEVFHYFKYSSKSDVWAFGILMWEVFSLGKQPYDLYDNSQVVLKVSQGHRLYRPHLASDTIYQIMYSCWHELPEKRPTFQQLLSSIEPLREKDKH
Description: as §1, §2, §4

[5] = target: T4, INSRR (Homo sapiens, UniProt P14616); assay: PanQinase kinase panel: INSRR; type: biochemical; settings: read-out: INHIBITORY EFFECT @ 1 uM: INSRR
T4 construct: purchased Reaction Biology Europe GmbH
Description: as §1, §2, §3

[6] = test system: T98G; assay: Glioblastoma multiforme cell proliferation assay (CellTiter Glo), T98G; type: cell-based; settings: Homo sapiens; for Emax: read-out: GBM-T-98G Cell Proliferation Emax %
Description: Inhibition of glioblastoma multiforme cell proliferation by compounds of the present invention was evaluated in U-87 MG (ATCC; Cat. No. HTB-14; Lot. No. 5018014) and T98G (ATCC; Cat. No. CRL-1690; Lot. No. 58267513) cell lines. These are adherent cell lines isolated from glioblastoma multiforme/malignant glioma, which express both CXCR4 and BTK (see Zhou et al. 2002 and Yue et al. 2017).
Cell viability was analyzed with the CellTiter Glo Cell assay kit ([…], Cat. No. G7573, Lot. No. 0000474103), according to the manufacturer's instruction.
U-87 MG and T98G cells were seeded onto 384-well opaque-walled clear bottom plates (Corning, Cat. No. 3765, Lot. No. 34319047) in EMEM (Invitrogen, Cat. No. 11095-080; Lot. No. 2276656) supplemented with 10% FBS (Invitrogen, Cat. No. 10099-141C, Lot. No. 2145169CP), at a seeding density of 1000 or 1200 cells per well, respectively, and then incubated in 5% CO2 at 37° C. overnight.
Compounds were prepared as stock solutions of 30 mM in DMSO (Sigma, Cat. No. 276855-1L. Lot. No. SHBL5610). Compounds were added to the cells, with 10 dose points in duplicates, in 3-fold dilution from a top concentration of 30 μM (final DMSO concentration […]), and incubated in 5% CO2 at 37° C. for 96 hr.
The 384-well plates were equilibrated at room temperature for approximately 30 min. 25 μl of CellTiter-Glo® Reagent was added to each well and mixed for 10 min on an orbital shaker to induce cell lysis. The 384-well plates were incubated at room temperature for 10 min to stabilize luminescent signal. Luminescence was detected on a PerkinElmer EnVision Multimode Plate Reader (measurement time 0.1s) as relative luminescence units (RLU).

[7] = target: T5, CLK1 (Homo sapiens, UniProt P49759); assay: PanQinase kinase panel: CLK1; type: biochemical
T5 construct: purchased Reaction Biology Europe GmbH
Description: as §1, §2, §3

[8] = target: T6, CLK2 (Homo sapiens, UniProt P49760); assay: PanQinase kinase panel: CLK2; type: biochemical
T6 construct: purchased Reaction Biology Europe GmbH
Description: as §1, §2, §3

[9] = read-out: INHIBITORY EFFECT @ 1 uM: BTK
[10] = read-out: INHIBITORY EFFECT @ 1 uM: CLK1
[11] = read-out: INHIBITORY EFFECT @ 1 uM: CLK2
[12] = Table 6A, cell viability, 96 hr, read-out: T98G IC50

T1 sequence (P11362 22-822): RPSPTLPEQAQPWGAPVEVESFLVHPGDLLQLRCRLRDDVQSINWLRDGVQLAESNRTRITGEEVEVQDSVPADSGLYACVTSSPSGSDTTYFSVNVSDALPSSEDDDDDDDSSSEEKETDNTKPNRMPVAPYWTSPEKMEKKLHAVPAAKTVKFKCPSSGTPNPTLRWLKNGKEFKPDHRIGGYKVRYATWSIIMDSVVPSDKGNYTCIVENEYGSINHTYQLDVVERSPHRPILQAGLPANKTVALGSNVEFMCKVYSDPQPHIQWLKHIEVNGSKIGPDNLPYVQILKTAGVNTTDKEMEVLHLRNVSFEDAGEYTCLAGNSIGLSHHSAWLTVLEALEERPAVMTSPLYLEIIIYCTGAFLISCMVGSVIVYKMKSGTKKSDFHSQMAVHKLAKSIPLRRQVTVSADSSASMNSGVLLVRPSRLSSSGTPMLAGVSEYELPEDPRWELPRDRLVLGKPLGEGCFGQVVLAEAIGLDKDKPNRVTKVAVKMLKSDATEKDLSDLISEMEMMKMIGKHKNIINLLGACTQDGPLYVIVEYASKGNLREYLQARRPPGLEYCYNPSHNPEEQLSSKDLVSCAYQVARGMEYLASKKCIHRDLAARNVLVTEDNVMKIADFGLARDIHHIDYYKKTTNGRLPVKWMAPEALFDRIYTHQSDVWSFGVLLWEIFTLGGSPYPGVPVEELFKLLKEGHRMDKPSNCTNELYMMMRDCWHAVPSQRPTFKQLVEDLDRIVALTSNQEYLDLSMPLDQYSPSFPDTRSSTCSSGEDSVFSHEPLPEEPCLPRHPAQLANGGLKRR
T6 sequence (P49760 whole entry): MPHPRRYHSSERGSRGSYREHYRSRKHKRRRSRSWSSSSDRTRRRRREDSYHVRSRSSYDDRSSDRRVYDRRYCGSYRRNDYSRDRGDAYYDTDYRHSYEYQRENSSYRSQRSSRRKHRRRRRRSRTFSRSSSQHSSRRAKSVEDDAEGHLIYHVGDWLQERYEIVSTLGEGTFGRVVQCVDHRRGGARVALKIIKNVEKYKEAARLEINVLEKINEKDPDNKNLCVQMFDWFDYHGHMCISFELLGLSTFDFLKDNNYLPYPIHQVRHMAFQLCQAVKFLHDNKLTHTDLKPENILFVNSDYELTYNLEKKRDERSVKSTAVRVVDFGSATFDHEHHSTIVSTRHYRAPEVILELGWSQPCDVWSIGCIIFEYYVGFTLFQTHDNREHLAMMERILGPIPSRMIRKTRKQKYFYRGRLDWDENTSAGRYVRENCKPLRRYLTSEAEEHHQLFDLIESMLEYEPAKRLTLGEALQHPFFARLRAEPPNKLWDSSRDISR
T5 sequence (P49759 whole entry): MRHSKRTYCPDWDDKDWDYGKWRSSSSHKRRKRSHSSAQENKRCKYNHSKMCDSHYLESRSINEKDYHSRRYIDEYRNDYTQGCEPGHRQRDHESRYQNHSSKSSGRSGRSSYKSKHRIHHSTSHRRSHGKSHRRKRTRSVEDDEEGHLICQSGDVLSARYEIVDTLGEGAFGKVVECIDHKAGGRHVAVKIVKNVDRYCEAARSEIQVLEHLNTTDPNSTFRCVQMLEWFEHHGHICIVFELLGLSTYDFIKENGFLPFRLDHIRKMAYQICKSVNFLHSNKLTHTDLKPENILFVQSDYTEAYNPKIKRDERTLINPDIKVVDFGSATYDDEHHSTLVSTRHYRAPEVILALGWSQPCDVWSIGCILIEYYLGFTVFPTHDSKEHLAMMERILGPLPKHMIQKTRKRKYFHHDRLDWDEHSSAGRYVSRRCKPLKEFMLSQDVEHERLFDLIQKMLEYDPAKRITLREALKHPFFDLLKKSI
T4 sequence (P14616 27-1297): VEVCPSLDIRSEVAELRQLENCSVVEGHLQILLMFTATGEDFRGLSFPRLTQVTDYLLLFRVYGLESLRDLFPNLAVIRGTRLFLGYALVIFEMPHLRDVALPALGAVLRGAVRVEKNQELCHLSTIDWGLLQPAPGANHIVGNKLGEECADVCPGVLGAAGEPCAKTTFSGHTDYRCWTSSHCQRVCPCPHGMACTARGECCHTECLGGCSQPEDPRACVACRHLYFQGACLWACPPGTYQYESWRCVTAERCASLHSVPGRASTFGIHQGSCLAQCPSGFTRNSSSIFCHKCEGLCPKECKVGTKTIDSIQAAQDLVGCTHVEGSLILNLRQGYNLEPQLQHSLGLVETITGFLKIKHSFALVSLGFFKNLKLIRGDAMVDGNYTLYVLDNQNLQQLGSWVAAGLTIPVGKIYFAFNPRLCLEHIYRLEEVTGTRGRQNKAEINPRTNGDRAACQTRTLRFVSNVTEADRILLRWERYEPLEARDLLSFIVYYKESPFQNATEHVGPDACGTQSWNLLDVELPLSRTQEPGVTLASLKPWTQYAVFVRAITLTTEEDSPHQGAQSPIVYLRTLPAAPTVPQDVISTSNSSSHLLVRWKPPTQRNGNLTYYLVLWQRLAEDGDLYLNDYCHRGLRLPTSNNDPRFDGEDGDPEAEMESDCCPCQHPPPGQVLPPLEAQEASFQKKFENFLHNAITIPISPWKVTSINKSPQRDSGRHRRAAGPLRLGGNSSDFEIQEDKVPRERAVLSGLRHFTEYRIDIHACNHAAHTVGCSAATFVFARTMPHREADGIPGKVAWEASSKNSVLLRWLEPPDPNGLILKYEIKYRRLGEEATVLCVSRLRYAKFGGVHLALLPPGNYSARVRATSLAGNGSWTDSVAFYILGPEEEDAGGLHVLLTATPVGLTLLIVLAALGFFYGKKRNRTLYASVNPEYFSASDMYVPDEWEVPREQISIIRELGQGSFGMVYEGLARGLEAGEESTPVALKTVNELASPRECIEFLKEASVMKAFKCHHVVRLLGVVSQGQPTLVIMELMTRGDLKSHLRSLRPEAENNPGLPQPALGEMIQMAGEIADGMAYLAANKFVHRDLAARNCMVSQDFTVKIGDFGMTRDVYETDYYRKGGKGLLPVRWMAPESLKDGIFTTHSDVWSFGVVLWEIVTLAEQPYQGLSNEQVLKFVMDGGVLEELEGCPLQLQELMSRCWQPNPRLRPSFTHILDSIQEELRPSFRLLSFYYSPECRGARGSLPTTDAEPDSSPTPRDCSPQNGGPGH
Chain of BTK (Q06187 whole entry): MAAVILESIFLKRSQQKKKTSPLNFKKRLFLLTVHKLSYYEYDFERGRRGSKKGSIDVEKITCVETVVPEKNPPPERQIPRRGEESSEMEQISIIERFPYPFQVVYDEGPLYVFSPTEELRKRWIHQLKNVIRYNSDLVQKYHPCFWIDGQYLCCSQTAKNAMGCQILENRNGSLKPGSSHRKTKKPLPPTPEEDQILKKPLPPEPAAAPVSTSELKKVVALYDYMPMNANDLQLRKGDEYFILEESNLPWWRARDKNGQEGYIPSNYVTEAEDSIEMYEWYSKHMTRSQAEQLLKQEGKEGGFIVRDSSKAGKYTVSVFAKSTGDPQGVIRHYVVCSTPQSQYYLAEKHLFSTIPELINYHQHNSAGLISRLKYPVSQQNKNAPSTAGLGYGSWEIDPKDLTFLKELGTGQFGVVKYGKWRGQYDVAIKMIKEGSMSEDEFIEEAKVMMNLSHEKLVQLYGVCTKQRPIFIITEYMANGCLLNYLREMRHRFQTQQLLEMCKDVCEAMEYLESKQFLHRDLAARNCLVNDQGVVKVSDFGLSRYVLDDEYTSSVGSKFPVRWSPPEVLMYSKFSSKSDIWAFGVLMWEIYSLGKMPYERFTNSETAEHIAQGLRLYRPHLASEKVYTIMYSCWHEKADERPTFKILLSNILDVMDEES

SMILES | inhibition at 1 µM [1] [%] | inhibition at 1 µM [2] [%] | inhibition at 1 µM [3, 9] [%] | inhibition at 1 µM [4] [%] | inhibition at 1 µM [5] [%] | inhibition at 1 µM [7, 10] [%] | inhibition at 1 µM [8, 11] [%] | further results
O=C(c1ccc(Oc2ccccc2)cc1Cl)c1c[nH]c2ncnc(N[C@@H]3CC[C@@H](CO)OC3)c12 [ARQ-531, (2-chloro-4-phenoxyphenyl) (4-(((3R,6S)-6-(hydroxymethyl)tetrahydro-2H-pyran-3-yl)amino)-7H-pyrrolo[2,3-d]pyrimidin-5-yl) methanone] | 50 to 69 | 90 to 100 | 90 to 100 | 90 to 100 | 90 to 100 |  |  | 
Cc1cccnc1[C@H]1CCC[C@@H](c2ncccc2C)N1CCN1CCN(C(=O)c2ccc(-c3cc4c(-c5cccc(NC(=O)c6ccccc6)c5C)ncnc4[nH]3)cc2)CC1 [Compound I-10, N-(3-(6-(4-(4-(2-((2R,6S)-2,6-bis(3-methylpyridin-2-yl)piperidin-1-yl)ethyl)piperazine-1-carbonyl)phenyl)-7H-pyrrolo[2,3-d]pyrimidin-4-yl)-2-methylphenyl)benzamide] | < 50 | < 50 | 90 to 100 | 70 to 89 | < 50 | 50 to 69 | 50 to 69 | Emax ([6]; Table 6B): 93%; IC50 ([6]; read-out: GBM-T-98G Cell Proliferation IC50 uM): 2.66 µM; inhibition at 1 µM ([7]; at 1 μM, read-out: inhibition of CLK1): 50 to 89%; inhibition at 1 µM ([3]; 1 μM, read-out: inhibitor effect on BTK): ≥ 90%; inhibition at 1 µM ([8]; at 1 μM, read-out: inhibition of CLK2): 50 to 89%
Cc1cc(-c2ccnc(Nc3cnn(CCN4[C@@H](c5ncccc5C)CCC[C@H]4c4ncccc4C)c3)n2)ccc1CNC(=O)N1CC(OC(C)C)C1 [Compound I-11] |  |  |  |  |  |  |  | Emax ([6]; Table 6B): 98%; IC50 ([6]; Table 6B, read-out: GBM-T-98G Cell Proliferation IC50): 3.28 µM
Cc1cccnc1[C@H]1CCC[C@@H](c2ncccc2C)N1CCCCNC(=O)[C@@H]1CC[C@@H](Nc2ncnc3[nH]cc(C(=O)c4ccc(Oc5ccccc5)cc4Cl)c23)CO1 [Compound I-16] |  |  |  |  |  |  |  | IC50 [6, 12]: 2.2 µM
Cc1cccnc1[C@H]1CCC[C@@H](c2ncccc2C)N1CCCCNC(=O)OC[C@@H]1CC[C@@H](Nc2ncnc3[nH]cc(C(=O)c4ccc(Oc5ccccc5)cc4Cl)c23)CO1 [Compound I-18] |  |  |  |  |  |  |  | IC50 [6, 12]: 2.4 µM
COc1ccc(F)cc1C(=O)NCc1ccc(-c2nn([C@@H](C)C(F)(F)F)c(N)c2C(N)=O)cc1 [LOXO-305, pirtobrutinib] | < 50 | < 50 | 90 to 100 | 50 to 69 | < 50 | < 50 | < 50 | 
C=CC(=O)N1CCC([C@@H]2CCNc3c(C(N)=O)c(-c4ccc(Oc5ccccc5)cc4)nn32)CC1 [Zanubrutinib, (7S)-2-(4-phenoxyphenyl)-7-(1-prop-2-enoylpiperidin-4-yl)-4,5,6,7-tetrahydropyrazolo[1,5-a]pyrimidine-3-carboxamide] | < 50 | < 50 |  |  | < 50 | < 50 | < 50 | 
